Counter-ions that a name gives are not always drawn.
Experiments:
[1] = solubility (testability in the bacteriostatic test); assay type: physicochemical; details: could not be tested in bacteriostatic test
female NMRI mice = experiment: LD50 acute toxicity in mice (Litchfield and Wilcoxon); assay type: in vivo; details: for Toxicity, LD50 i.p. / Toxicity, LD50 p.o.: female NMRI mice 20-30 g, 10 days observation, 14400 min
[2] = antibacterial activity, general statement; assay type: cell-based
[3] = test system: bacterial parent strains (Escherichia coli, Proteus vulgaris, Pseudomonas aeruginosa); experiment: bacteriostatic activity (serial dilution in thioglycolate nutrient solution); assay type: cell-based; details: for concentration at which activity is (still) shown (text): after 6 days at 30°C; for Bacteriostatic activity in relation to concentration (table): solutions containing 100 mg hexetidine, incubated at 30°C for 6 days
Method: For a determination of bacteriostatic activity, solutions of hexetidine, hexetidine oxalate and hexetidine nicotinate having the following compositions were compared: The inoculum suspension was obtained by inoculation of a sterile Petri dish containing nutrient agar (standard I) with a test culture of bacterial parent strains (Escherichia coli, Proteus vulgaris, Pseudomonas aeruginosa) and incubation at 30°C for 24 hours. The suspension was either used immediately or stored at +4°C. The organisms grown in the Petri dish were elutriated with 5 ml physiological brine solution and diluted 1:10 with the same solution to a volume of 50 ml. Then 250 ml double concentrated thioglycolate solution (60 g/l) were mixed with 100 drops (about 5 ml) of the above 1:10 diluted primary culture of bacterial parent strains and shaken to obtain a uniform suspension. Serial dilutions were prepared for each of the above-mentioned compound solutions in the following concentrations, each comprising 10 test tubes of […]: hexetidine per ml: 1,000; 500; 250; 125; 62.5; about 31; about 16; about 8; about 4; about 2. Next, 5 ml double concentrated thioglycolate nutrient solution inoculated with the test organisms were added to each test tube by means of a pipet. Each test tube thus contained 50% of the final concentration. […]

[4] = Saski and Shah 1965; Barkley et al. 1960/1961; cited from earlier work
[5] = LD50 acute toxicity in mice (Litchfield and Wilcoxon); assay type: in vivo; details: mouse, in vivo, po; female NMRI mice 20-30 g; 10 days observation
[6] = listed as Hexetidine nicotinate

## CCCCC(CC)CN1CN(CC(CC)CCCC)CC(C)(N)C1 (stereo not drawn) [hexetidine cinnamate]
[1]
  solubility: extreme insolubility
Female NMRI mice; listed as Hexetidine cinnamate
  Toxicity, LD50 i.p.: 54 mg/kg
  Toxicity, LD50 p.o.: 1,740 mg/kg

## CCCCC(CC)CN1CN(CC(CC)CCCC)CC(C)(N)C1 (stereo not drawn) [hexetidine nicotinate, 1,3-bis(β-ethylhexyl)-5-amino-5-methylhexahydropyrimidine pyridine-3-carboxylate]
[2]
  antibacterial activity compared with hexetidine: particularly favorable increase in antibacterial activity
Female NMRI mice; [6]
  Toxicity, LD50 i.p.: 63 mg/kg
  Toxicity, LD50 p.o.: 1,830 mg/kg
Female NMRI mice; relative to hexetidine, mice
  toxicity of hexetidine after salt formation with nicotinic acid: substantially reduced
[3]; [6]
  concentration at which activity is (still) shown (text): 62.5 γ
  Bacteriostatic activity in relation to concentration (table): 62.5 γ

## CCCCC(CC)CN1CN(CC(CC)CCCC)CC(C)(N)C1 (stereo not drawn) [hexetidine oxalate]
Female NMRI mice; listed as Hexetidine oxalate
  Toxicity, LD50 i.p.: 23 mg/kg
  Toxicity, LD50 p.o.: 970 mg/kg
[3]; listed as Hexetidine oxalate
  concentration at which activity is (still) shown (text): > 500 γ
  Bacteriostatic activity in relation to concentration (table): 500 γ

## CCCCC(CC)CN1CN(CC(CC)CCCC)CC(C)(N)C1 (stereo not drawn) [hexetidine, 1,3-bis(β-ethylhexyl)-5-amino-5-methylhexahydropyrimidine]
[4]
  antibacterial activity (words, literature): remarkable antibacterial activity
[5]
  LD50 at 240 h: 960 mg/kg
Female NMRI mice; listed as Hexetidine
  Toxicity, LD50 i.p.: 33 mg/kg
[3]
  concentration at which activity is (still) shown (text): 125 γ
[3]; listed as Hexetidine
  Bacteriostatic activity in relation to concentration (table): 125 γ

— US3946013A, “1,3-BIS(Beta-ethylhexyl)-5-amino-5-methylhexahydropyrimidine-pyridine- 3-carboxylate, process for its preparation and pharmaceutical compositions containing this compound” (Wulfing; Johann A., priority 1973, dated 1976)
